Assay results from PMC6154683, “High-Throughput Determination of Sodium Danshensu in Beagle Dogs by the LCMS/MS Method, Employing Liquid-Liquid Extraction Based on 96-Well Format Plates” (Molecules : A Journal of Synthetic Chemistry and Natural …, 2017).

Legend:
[1] = Stability of sodium danshensu in beagle dog plasma (QC samples); assay type: in vitro ADME; settings: for Measured (mean ± SD): n = 3; for long-term stability in plasma (in words): beagle dog plasma stored at −80 °C for 20 days
Protocol: The analyte stability determinations comprised ambient temperature stability, long-term stability, autosampler stability, and freeze-thaw cycle stability, which were evaluated by analyzing two QC levels in triplicate. The QC samples were analyzed after storage at room temperature for 2 h, at −80 °C for 20 days, and in the autosampler at room temperature for at least 24 h after extraction and after three freeze-thaw cycles, which consisted of storage at −80 °C for a minimum of 12 h followed by thawing at room temperature.

[2] = Pharmacokinetic and bioavailability study in beagle dogs after intravenous and oral administration (plasma, LC-MS/MS); assay type: in vivo; settings: for C0: mean ± SD
Protocol: All the studies on animals were done in accordance with the Guidelines for the Care and Use of Laboratory Animals. Beagle dogs (~10 kg) were purchased from the Shanghai Slack Experimental Animal Co., Ltd. (Shanghai, China) and acclimated in the laboratory for 1 week prior to the experiments, housed in separate cages under room temperature with a 12 h light/dark cycle, and free access to standard diet and water. All the beagle dogs were fasted for 12 h before the experiments with free access to water.
For pharmacokinetics study, 24 beagle dogs were randomly divided into four groups (n = 6). Four different dosages (5 mg/kg, 10 mg/kg, 15 mg/kg I.V., 60 mg/kg P.O.) were designed and were assigned randomly to the four groups of beagle dogs. Blood samples (500 μL) were withdrawn from the foreleg vein into heparinized tubes in strict accordance with the time points of the protocol made in advance. Then after centrifuging at 8000 rpm for 10 min, the supernatant plasma sample was transferred into another tube and frozen at −80 °C until analysis. The time points for blood sampling were listed as follows. Pre-dose and subsequently at 0, 0.03, 0.08, 0.17, 0.33, 0.67, 1, 1.5, 2, 3, 4, 6, 8, and 12 h were used for the three intravenous injection groups, and pre-dose, 0.08, 0.17, 0.25, 0.5, 0.75, 1, 1.5, 2, 3, 4, 6, 8, and 12 h were used for the oral administration group.
For plasma sample preparation, the LLE in 96-well format plate was used. Prior to analysis, all frozen plasma samples, calibration standards, and quality control samples were thawed and allowed to equilibrate at room temperature. The samples were vortexed adequately using a vortex mixer (Beijing Targintech Co. Ltd., Beijing, China) before pipetting. Samples were prepared using LLE in 96-well deep format plate (2 mL, Corning Life Sciences—Axygen Inc., Union City, CA, USA). An automatic multichannel pipette (INTEGRA Biosciences AG, Zizers, Switzerland) was used for liquid transfer steps. Aliquots of 100 μL plasma were transferred into the 96-well deep format plate. Aliquots of 10 μL of IS solution (25 ng/mL) were added to each well except for the well designated for the double blank plasma. Then 20 μL of 2 mol/L hydrochloric acid was added to each well of the plate, and vortexed for 30 s for mixing. The mixed sample was then extracted with 1000 μL methyl tert-butyl ether by vortex-mixing for 3 min in a platform shaker (Grant, Cambridge, UK). After centrifugation at 12,000 rpm for 10 min, 800 μL of the upper organic layer was transferred from the original sample plates into the respective positions of the new 2.0 mL deep 96-well plates. Extracts were concentrated to dryness by an automated concentration evaporation system at 30 °C under a gentle stream of nitrogen (Turbo Vap 96, Biotage AB, Uppsala, Sweden) for 15 min. After drying, the residue was reconstituted with 100 μL of methanol–water (50:50, v/v) and was then vortexed for 3 min and centrifuged for 10 min at 12,000 rpm. A 5 μL aliquot of the supernatant was injected into the LC-MS/MS system for analysis.
The pharmacokinetic analysis was performed using the non-compartmental model analysis. The concentration versus time data and the pharmacokinetic parameters including Cmax, t1/2, Tmax (h), AUC0-t, AUC0-12, MRT, CL, and Vd were assessed via non-compartmental analysis using the BAPP software (version 2.0, Center of Drug Metabolism and Pharmacokinetics, China Pharmaceutical University, Nanjing, china). The absolute bioavailability (%F) of sodium danshensu was estimated via AUC0→∞ values of oral and intravenous administration.

[3] = dog, plasma, IV 5 mg/kg, beagle dogs
[4] = dog, plasma, IV 10 mg/kg, beagle dogs
[5] = dog, plasma, IV 15 mg/kg, beagle dogs
[6] = dog, plasma, PO 60 mg/kg, beagle dogs

Structure (SMILES): O=C([O-])[C@H](O)Cc1ccc(O)c(O)c1.[Na+] [sodium danshensu, sodium D-(+)-β-(3,4-dihydroxyphenyl) lactate]
- RE (relative error vs spiked) ([1]; ambient temperature 2 h, spiked 20 ng/mL): 5.0%
- Measured (mean ± SD) ([1]; ambient temperature 2 h, spiked 20 ng/mL, beagle dog plasma): 21.00 ± 1.42 ng/mL
- RE (relative error vs spiked) ([1]; ambient temperature 2 h, spiked 800 ng/mL): −3.6%
- Measured (mean ± SD) ([1]; ambient temperature 2 h, spiked 800 ng/mL, beagle dog plasma): 771.45 ± 23.94 ng/mL
- Measured (mean ± SD) ([1]; autosampler 24 h (extracted samples), spiked 20 ng/mL): 20.10 ± 1.22 ng/mL
- Measured (mean ± SD) ([1]; autosampler 24 h (extracted samples), spiked 800 ng/mL): 772.49 ± 29.64 ng/mL
- RE (relative error vs spiked) ([1]; autosampler 24 h, spiked 20 ng/mL): 0.5%
- RE (relative error vs spiked) ([1]; autosampler 24 h, spiked 800 ng/mL): −3.4%
- long-term stability in plasma (in words) [1]: stable
- long-term stability in plasma (in words) ([1]; listed as sodiusm danshensu): Excellent stability
- ambient temperature stability in plasma (in words) ([1]; beagle dog plasma, ambient temperature for 2 h): Excellent stability
- autosampler stability (in words) ([1]; extracted samples kept in the autosampler for 24 h): No degradation
- RE (relative error vs spiked) ([1]; long-term 20 days at −80 °C, spiked 20 ng/mL): 2.5%
- Measured (mean ± SD) ([1]; long-term 20 days at −80 °C, spiked 20 ng/mL, beagle dog plasma): 20.50 ± 1.13 ng/mL
- RE (relative error vs spiked) ([1]; long-term 20 days at −80 °C, spiked 800 ng/mL): 3.1%
- Measured (mean ± SD) ([1]; long-term 20 days at −80 °C, spiked 800 ng/mL, beagle dog plasma): 825.29 ± 55.20 ng/mL
- freeze-thaw stability, deviation of the concentration (in words) ([1]; three cycles of freezing and thawing): within the acceptable limit
- RE (relative error vs spiked) ([1]; three freeze-thaw cycles at −80 °C, spiked 20 ng/mL): 7.2%
- Measured (mean ± SD) ([1]; three freeze-thaw cycles at −80 °C, spiked 20 ng/mL, beagle dog plasma): 21.45 ± 0.88 ng/mL
- RE (relative error vs spiked) ([1]; three freeze-thaw cycles at −80 °C, spiked 800 ng/mL): −0.2%
- Measured (mean ± SD) ([1]; three freeze-thaw cycles at −80 °C, spiked 800 ng/mL, beagle dog plasma): 798.54 ± 47.76 ng/mL
- AUC(0-inf) [2, 3]: 6870 ± 780 ng·h/mL
- AUC(0-t) [2, 3]: 6710 ± 810 ng·h/mL
- MRT [2, 3]: 0.88 ± 0.41 h
- Vd [2, 3]: 6.63 ± 3.49 L
- clearance [2, 3]: 123 mL/min
- half-life [2, 3]: 2.3 ± 1.23 h
- C0 [2, 3]: 36600 ± 3840 ng/mL
- AUC(0-inf) [2, 4]: 8460 ± 430 ng·h/mL
- AUC(0-t) [2, 4]: 8270 ± 380 ng·h/mL
- MRT [2, 4]: 1.08 ± 0.53 h
- Vd [2, 4]: 12.8 ± 5.5 L
- clearance [2, 4]: 197 mL/min
- half-life [2, 4]: 2.32 ± 1.33 h
- C0 [2, 4]: 46700 ± 15200 ng/mL
- AUC(0-inf) [2, 5]: 17800 ± 3040 ng·h/mL
- AUC(0-t) [2, 5]: 17800 ± 3030 ng·h/mL
- MRT [2, 5]: 0.73 ± 0.05 h
- Vd [2, 5]: 6.36 ± 1.48 L
- clearance [2, 5]: 144 mL/min
- half-life [2, 5]: 1.64 ± 0.39 h
- C0 [2, 5]: 79200 ± 18900 ng/mL
- AUC(0-inf) [2, 6]: 22700 ± 2570 ng·h/mL
- AUC(0-t) [2, 6]: 22200 ± 2480 ng·h/mL
- Cmax [2, 6]: 7920 ± 1770 ng/mL
- MRT [2, 6]: 4.23 ± 0.2 h
- Tmax [2, 6]: 2.83 ± 0.41 h
- half-life [2, 6]: 1.84 ± 0.29 h
- bioavailability ([2]; dog, plasma, beagle dogs, estimated via AUC0→∞ of oral (60 mg/kg) and intravenous administration, read-out: mean absolute bioavailability (%F)): 34.8%
- concentration at 1.5 h ([2]; one beagle dog plasma sample, 1.5 h after intravenous 10 mg/kg, read-out: assayed plasma concentration): 930 ng/mL
